In US9049874B2, “Use of azaperone for reducing antibiotic usage” (Elanco Animal Health Ireland Limited, priority 2008, dated 2015):

Test system: weaned pigs
Assay: Preclinical study of the effects of azaperone administered via drinking water: therapeutic usage of antibiotics
Format: in vivo
Details: for number of pigs treated (therapeutic use of antibiotics): 6 mg azaperone per liter drinking water for first 3 days
Experimental: The study was performed in weaned pigs to investigate the effect of azaperone that was continuously orally administered via drinking water on postweaning diarrhoea and associated usage of antibiotics, behaviour, feed conversion, growth and homogeneity of growth. Groups of approximately 250 pigs were enrolled in the study starting from the moment they were weaned. The pigs were housed according to everyday farming conditions in a conventional pig farm. All pigs were housed in similar buildings. Each group was housed in 2 compartments, gilts and barrows were housed in separate compartments. Pigs were kept in pens of approximately 12 individuals each. After weaning, the piglets were housed in continuous artificial light for the first 48 hours. Afterwards, pigs were housed in continuous darkness for the further duration of the study, except during observations (twice a day). During the course of the study, pigs were not vaccinated. A metaphylactic colistine treatment via drinking water was applied in each group starting from the fifth day after weaning. Treatment continued for seven days. Pigs were fed ad libitum. Troughs were filled automatically with a computerized system that records the supplied weight of feed per pen. During the first ten days of the nursery period, pigs were fed a pelleted weaner feed which had also been available to the piglets in the farrowing unit. Between the 10th and 15th day at the nursery, the weaner feed was gradually replaced by grower pellets which have been given until the 35th day. Finally a switch was made between the 35th and the 40th day from grower pellets to starter pellets. Tap water was available during the whole period of the study and was supplied via a water nipple in the feeding trough. The drinking water comprising azaperone was obtained by diluting Stresnil™ injection in water to obtain a concentration of 6 mg azaperone per liter drinking water. A primary dilution was prepared by diluting 90 ml of Stresnil™ 4% injectable solution with tap water to obtain 6 liters of preparation. This primary dilution was linked for 24 hours with an automatic dosing system which continuously diluted the preparation in the drinking water at a rate of 1 to 100. One preparation of the primary dilution was sufficient to treat 600 liters of drinking water which exceeded the anticipated daily consumed volume of water by the pigs in one compartment. The two following days, a new primary dilution was made fresh each morning and linked to the automatic dosing system for 24 hours. This study was a controlled parallel study with 4 sequential groups of approximately 250 weaned pigs each. The first and third group were treated with azaperone via the drinking water for 3 consecutive days. The second and fourth group were control groups treated with placebo (plain drinking water). [table] On day one of the test period, water containing 6 mg azaperone per liter or placebo, was made available. Starting from the fourth day, the drinking water no longer contained azaperone. All pigs followed the normal procedures for further fattening. No pigs were brought to the slaughterhouse during the study (3 days dosing and 39 days follow-up). In order to assess the effect of the oral azaperone administration on the onset of postweaning diarrhoea and concomittant therapeutic usage of antibiotics, the occurrence of diarrhoea was followed in groups 1 to 4 and recorded daily by the Principal Investigator. All individual pens were checked by the Principal Investigator and a diarrhoea score was noted as follows: Any use of antibiotics in groups 1 to 4 was recorded the first three weeks after weaning and grouping of the animals. The decision to treat an animal with antibiotics was made by the Principal Investigator according to everyday practice on that farm.

[1] = during the nursery period, azaperone-treated group

## O=C(CCCN1CCN(c2ccccn2)CC1)c1ccc(F)cc1 [azaperone]
6 mg/liter water during first three days of 42 day test period
  usage of antibiotics compared to placebo-treated groups: significant reduction of the usage of antibiotics
6 mg/liter water during first three days of 42 day test period, vs. 29 in placebo
  number of piglets treated with antibiotics (conclusion): 11
6 mg/liter water during first three days of 42 day test period, vs. 33 in placebo
  number of individual antibiotic treatments (conclusion): 13
[1]
  number of ampicilline injections: 1
  number of enrofloxacine injections: 4
  number of oxytetracycline injections: 2
  number of piglets treated with antibiotics for curative reasons: 7 piglets
  total number of individual injections with antibiotics: 7 injections
Week 1 after weaning
  number of pigs treated (therapeutic use of antibiotics): 4
Week 2 after weaning
  number of pigs treated (therapeutic use of antibiotics): 3
Week 3 after weaning
  number of pigs treated (therapeutic use of antibiotics): 0
